Active and inactive are the calls of the source. The rule behind the calls is not given here. Non-standard residues stand in square brackets, D forms with d. Residues, ends and D or L forms follow the SMILES beside them. Bip = N[C@@H](Cc1ccc(-c2ccccc2)cc1)C(=O)O; pY = N[C@@H](Cc1ccc(OP(=O)(O)O)cc1)C(=O)O
How the values were obtained:
[1] = tested on: Escherichia coli; assay: Antibacterial activity against Escherichia coli ATCC 25922 preincubated with serum for 6 hrs followed by 15 mins inactivation prior to bacteria addition and measured after 18 to 24 hrs; format: functional, organism-based; settings: time 18-24 hrs
[2] = tested on: Staphylococcus aureus; assay: Antibacterial activity against Staphylococcus aureus ATCC 25923 assessed as fold increase in MIC in presence of Na+; format: functional
[3] = tested on: Escherichia coli; assay: Antibacterial activity against Escherichia coli ATCC 25922 assessed as fold increase in MIC in presence of MgCl2; format: functional
[4] = tested on: Staphylococcus aureus; assay: Antibacterial activity against Staphylococcus aureus ATCC 25923 in presence of FeCl3; format: functional, organism-based
[5] = tested on: Escherichia coli; assay: Antibacterial activity against Escherichia coli ATCC 25922 in presence of FeCl3; format: functional, organism-based
[6] = tested on: Escherichia coli; assay: Antibacterial activity against Escherichia coli ATCC 25922 in presence of KCl; format: functional, organism-based
[7] = tested on: Escherichia coli; assay: Antibacterial activity against Escherichia coli ATCC 25922 in presence of ZnCl2; format: functional, organism-based
[8] = Toxicity in BALB/c mouse assessed as mortality at 220 to 350 mg/kg, ip measured after 14 days; format: organism-based; settings: in vivo, 336 h, dose 220-350 mg/kg, time 14 day
[9] = Toxicity in ip dosed BALB/c mouse assessed as effect on spleen at LD50 dose by H and E staining based assay; format: organism-based; settings: in vivo
[10] = Toxicity in ip dosed BALB/c mouse assessed as liver bleeding at LD50 dose by H and E staining based assay; format: organism-based; settings: in vivo
[11] = Toxicity in ip dosed BALB/c mouse assessed as kidney edema at LD50 dose by H and E staining based assay; format: organism-based; settings: in vivo
[12] = Toxicity in ip dosed BALB/c mouse assessed as kidney bleeding at LD50 dose by H and E staining based assay; format: organism-based; settings: in vivo
[13] = tested on: Staphylococcus aureus; assay: Antibacterial activity against Staphylococcus aureus ATCC 25923 infected in BALB/c mouse systemic infection model assessed as reduction in bacterial load in liver at 21.21 mg/kg, ip pre-infected for 2 hrs followed by compound addition and measured after 8 hrs postinfection; format: functional, organism-based; settings: time 6.0 hrs
[14] = tested on: Staphylococcus aureus; assay: Antibacterial activity against Staphylococcus aureus ATCC 25923 infected in BALB/c mouse systemic infection model assessed as reduction in bacterial load in spleen at 21.21 mg/kg, ip pre-infected for 2 hrs followed by compound addition and measured after 8 hrs postinfection; format: functional, organism-based; settings: time 6.0 hrs
[15] = tested on: Staphylococcus aureus; assay: Antibacterial activity against Staphylococcus aureus ATCC 25923 infected in BALB/c mouse systemic infection model assessed as improved alveoli dilation at 21.21 mg/kg, ip pre-infected for 2 hrs followed by compound addition and measured after 8 hrs postinfection; format: functional, organism-based; settings: time 6.0 hrs
[16] = tested on: Klebsiella pneumoniae; assay: Antibacterial activity against Klebsiella pneumoniae ATCC 700603 infected in BALB/c mouse lung infection model assessed as increased healing at 5.31 mg/kg, ip administered twice daily for 3 days and measured for 7 days; format: functional, organism-based; settings: time 10.0 day
[17] = tested on: Klebsiella pneumoniae; assay: Antibacterial activity against Klebsiella pneumoniae ATCC 700603 infected in BALB/c mouse lung infection model assessed as removal of bacterial load at 5.31 mg/kg, ip administered twice daily for 3 days and measured after 6 days; format: functional; settings: time 9 day
[18] = tested on: Escherichia coli; assay: Antibacterial activity against Escherichia coli ATCC 25922 assessed as fold increase in MIC preincubated with serum for 6 hrs followed by 15 mins inactivation prior to bacteria addition and measured after 18 to 24 hrs; format: functional; settings: time 18-24 hrs
[19] = tested on: Klebsiella pneumoniae; assay: Bactericidal activity against Klebsiella pneumoniae ATCC 700603 at 2 times MIC measured upto 1440 mins by time kill assay; format: functional, organism-based
[20] = tested on: Staphylococcus aureus; assay: Bactericidal activity against Staphylococcus aureus ATCC 25923 at 2 times MIC measured upto 1440 mins by time kill assay; format: functional, organism-based
[21] = Toxicity in BALB/c mouse assessed as mortality at 40 to 130 mg/kg, ip measured after 14 days; format: organism-based; settings: in vivo, 336 h, dose 40-130 mg/kg, time 14 day
[22] = Toxicity in ip dosed BALB/c mouse assessed as hemorrhage in lung at LD50 dose by H and E staining based assay; format: organism-based; settings: in vivo
[23] = tested on: Staphylococcus aureus; assay: Antibacterial activity against Staphylococcus aureus ATCC 25923 infected in BALB/c mouse systemic infection model assessed as reduction in bacterial load in liver at 20 mg/kg, ip pre-infected for 2 hrs followed by compound addition and measured after 8 hrs postinfection; format: functional, organism-based; settings: time 6.0 hrs
[24] = tested on: Klebsiella pneumoniae; assay: Antibacterial activity against Klebsiella pneumoniae ATCC 700603 infected in BALB/c mouse lung infection model assessed as removal of bacterial load at 5 mg/kg, ip administered twice daily for 3 days and measured after 6 days; format: functional; settings: time 9 day
[25] = tested on: Klebsiella pneumoniae; assay: Antibacterial activity against Klebsiella pneumoniae ATCC 700603 infected in BALB/c mouse lung infection model assessed as alveolar dilation at 5 mg/kg, ip administered twice daily for 3 days and measured after 7 days; format: functional, organism-based; settings: time 10.0 day
[26] = tested on: Klebsiella pneumoniae; assay: Antibacterial activity against Klebsiella pneumoniae ATCC 700603 infected in BALB/c mouse lung infection model assessed as improved alveolar aggregation at 5 mg/kg, ip administered twice daily for 3 days and measured after 7 days; format: functional, organism-based; settings: time 10.0 day

For `CC(C)C[C@H](NC(=O)[C@H](CC(C)C)NC(=O)[C@H](Cc1ccc(OP(=O)(O)O)cc1)NC(=O)[C@H](CCCCN)NC(=O)[C@H](CC(C)C)NC(=O)[C@H](CCCNC(=N)N)NC(=O)[C@H](CCCCN)NC(=O)[C@H](Cc1ccc(-c2ccccc2)cc1)NC(=O)[C@H](CC(C)C)NC(=O)CN)C(N)=O` (H-GL[Bip]KRLK[pY]LL-NH2), the Activity [1] was “Active; Antibacterial Activity Remained Unaffected”, the Activity [2] was “Active; Compound Showed Excellent Tolerance Towards Salt Environment” and the “fold change (FC)” value [3] was 2. For the same compound, the Activity [4] was “Active; Compound Showed Excellent Tolerance Towards Salt Environment”, the Activity [5] was “Active; Compound Showed Excellent Tolerance Towards Salt Environment” and the Activity [6] was “Active; Compound Showed Excellent Tolerance Towards Salt Environment”. For the same compound, the Activity [7] was “Active; Compound Showed Excellent Tolerance Towards Salt Environment”, the Activity [8] was “Toxic” and the Activity [9] was “Toxic”. For the same compound, the Activity [10] was “Toxic”, the Activity [11] was “Toxic” and the Activity [12] was “Toxic”. The Activity [13] was “Active”, the Activity [14] was “Active” and the Activity [15] was “Active”. For the same compound, the Activity [16] was “Active” and the Activity [17] was 100%.
In the case of `CC(C)C[C@H](NC(=O)[C@H](CC(C)C)NC(=O)[C@H](Cc1ccc(O)cc1)NC(=O)[C@H](CCCCN)NC(=O)[C@H](CC(C)C)NC(=O)[C@H](CCCNC(=N)N)NC(=O)[C@H](CCCCN)NC(=O)[C@H](Cc1ccc(-c2ccccc2)cc1)NC(=O)[C@H](CC(C)C)NC(=O)CN)C(N)=O` (H-GL[Bip]KRLKYLL-NH2), the “fold change (FC)” value [18] is reported as 2, the Activity [19] is reported as “Active” and the Activity [20] is reported as “Active”. For the same compound, the Activity [21] was “Toxic”, the Activity [22] was “Toxic” and the Activity [23] was “Active”. For the same compound, the Activity [24] was 100%, the Activity [25] was “Active” and the Activity [26] was “Active”.
